Assay results taken from the SangsterLogP compilation.
One block for each molecule: values may come before it.

What was measured:
[1] = method code SF-AS, from DOI: 10.1007/s001289900721, PMID: 9657823
[2] = method code SF-GLC, from DOI: 10.1016/s0003-2670(00)84505-5
[3] = not given; remark: listed apart in the source
[4] = not given; remark: listed apart in the source
[5] = not given; remark: listed apart in the source
[6] = method code SF, from Korenman, Y. (1975). Extraction of hydroxybenzoic acids and some of their derivatives from aqueous solution. Zh. Prikl. Khim., 48(6)1472-1474.; conditions: pH 2.0
[7] = method code SF-AS, from DOI: 10.1039/ft9938903773
[8] = not given; remark: listed apart in the source
[9] = method code SF-HPLC, from DOI: 10.1016/j.jchromb.2013.02.012, PMID: 23500352; conditions: pH 4.4
[10] = method code SF-AS, from DOI: 10.1016/0045-6535(84)90003-1
[11] = method code SF-RC, from DOI: 10.1021/jm901332c, PMID: 19921956; conditions: pH 7.4
[12] = method code SF-RC, from DOI: 10.1002/ps.2780130506
[13] = not given; remark: listed apart in the source
[14] = not given; remark: listed apart in the source
[15] = not given; remark: listed apart in the source
[16] = not given; remark: listed apart in the source
[17] = method code SF-GLC,AS, from DOI: 10.2134/jeq1981.00472425001000030028x
[18] = not given; remark: listed apart in the source
[19] = not given; remark: listed apart in the source
[20] = method code SF-GLC, from DOI: 10.1021/j100260a019
[21] = not given; remark: listed apart in the source
[22] = method code SF-AS, from DOI: 10.1021/jm00069a002, PMID: 8355246; conditions: pH 7.4
[23] = not given; remark: listed apart in the source
[24] = method code SF-AS, from DOI: 10.1016/0006-2952(65)90227-3, PMID: 14322976; conditions: pH 6.8
[25] = not given; remark: listed apart in the source
[26] = not given; remark: listed apart in the source
[27] = method code SF, from DOI: 10.1016/0378-5173(87)90234-1
[28] = method code SF-RC, from PMID: 3794812
[29] = not given; remark: listed apart in the source
[30] = method code HPLC, from DOI: 10.1016/j.ejmech.2015.05.022, PMID: 26005028; conditions: pH 7.1
[31] = not given; remark: listed apart in the source
[32] = method code SF-GLC, from DOI: 10.1007/bf00343116, PMID: 4026577
[33] = method code SF-GLC, from DOI: 10.1021/je970020p
[34] = method code SF-AS, from PMID: 640322; conditions: pH 4.0
[35] = method code SF-HPLC, from DOI: 10.1002/jat.2550130210, PMID: 8486911; conditions: pH 13.0
[36] = pH 5.6
[37] = method code SF-RC, from DOI: 10.1016/0014-2999(79)90231-0, PMID: 527663
[38] = not given; remark: listed apart in the source
[39] = method code SF-AS, from DOI: 10.1111/j.2042-7158.1989.tb06384.x, PMID: 2576447; conditions: pH 7.4
[40] = method code SF-AS, from DOI: 10.1021/jm00304a030, PMID: 5793164; conditions: pH 7.4
[41] = not given; remark: listed apart in the source
[42] = method code SF, from DOI: 10.1093/jnci/60.2.345, PMID: 621753

Compound: COc1ccc(OC)c(C=O)c1
logP [1]: 1.91

logP: 2.19
Compound: O=C(O)c1ccccc1Br

logP [2]: 3.19
Compound: COc1cc(Cl)c(Cl)cc1O

Compound: N#Cc1ccccc1
logP [3]: 1.5

logP [4]: 4.06
Compound: Nc1c(Cl)c(Cl)cc(Cl)c1Cl

Compound: Cc1cccc([N+](=O)[O-])c1
logP [5]: 2.4

logD [6]: 1.05
Compound: O=C(O)c1ccc(O)c(O)c1O

Compound: O=C1C=CC(=O)c2c(O)ccc(O)c21
logP [7]: 1.79

logP [8]: -0.9
Compound: CN(C)c1cc[n+]([O-])cc1

logD [9]: -1.18
Compound: CS(=O)(=O)OC[C@H](O)[C@@H]1CO1

logP [1]: 0.54
Compound: O=Cc1cc(O)ccc1O

Compound: Oc1c(Cl)ccc(Cl)c1Cl
logP [10]: 3.77

logD [11]: 0.38
Compound: Cn1cnc2c(Cl)ncnc21

logP [12]: 1.8
Compound: NC(=O)Nc1ccc(Cl)cc1

logP [13]: 0.04
Compound: CC(C)C(=O)NC(N)=O

logD [11]: 0.52
Compound: Cn1cnc2c(Br)ncnc21

logP [14]: 1.25
Compound: CC(=O)c1ccccc1N

logP [12]: 1.57
Compound: CSc1cccc(NC(N)=O)c1

logP [15]: 0.45
Compound: O=C(O)c1cccc(C(=O)O)n1

logP [16]: 0.15
Compound: Nc1ccccc1N

Compound: Nc1c([N+](=O)[O-])cc(C(F)(F)F)cc1[N+](=O)[O-]
logP [17]: 2.29

logP [18]: 1.11
Compound: CCCOC(C)=O

logP [19]: 0.37
Compound: CCN(CC)C(C)=O

logP [20]: 1.22
Compound: CC1CCC(C)O1 (stereo not given)

Compound: Cc1cccc(C)c1
logP [3]: 3.37

logP [21]: 1.81
Compound: Brc1ccccc1-c1nnn[nH]1

logD [22]: 0.05
Compound: CCc1[nH]ccc(=O)c1O

Compound: O=C1C=CC(=O)C=C1
logP [7]: 0.3

logP [16]: 0.96
Compound: Nc1ccc(O)c([N+](=O)[O-])c1

logP [23]: 0.29
Compound: CC(=O)CCCCn1c(=O)c2c(ncn2C)n(C)c1=O

logD [24]: 0.83
Compound: O=Nc1ccc(O)c(=O)cc1

Compound: O=[N+]([O-])c1ccc(CCBr)cc1
logP [25]: 2.9

logP [26]: 4.1
Compound: COc1cc(Cl)c(Cl)c(Cl)c1

logD ([27]; pH 4.0): 1.42
Compound: O=C(OC1CCCCC1)n1cc(F)c(=O)[nH]c1=O

logP [28]: 0.16
Compound: COCC(O)Cn1c(Br)cnc1[N+](=O)[O-] (stereo not given)

logP [29]: 1.56
Compound: Nc1ccc(F)cc1F

logD [22]: -0.1
Compound: CCCCNC(=O)CCn1ccc(=O)c(O)c1C

Compound: O=[N+]([O-])c1ccc(Cl)c(Cl)c1Cl
logP [25]: 3.54

Compound: CCCNC(=O)CBr
logD [30]: 0.91

Compound: Oc1c(Cl)cccc1Cl
logP [31]: 2.92

Compound: N#CCCCCCC#N
logP [32]: 0.05

logP [33]: 4.09
Compound: Clc1cc(Cl)cc(Cl)c1

Compound: Oc1ccc(Cl)c(Cl)c1Cl
logP [10]: 3.8

logD [34]: 0.58
Compound: NC(=O)N(CCCCCCN(N=O)C(N)=O)N=O

Compound: c1ccc(-c2ccccc2)cc1
logP [29]: 4.05

Compound: COc1ccc(N)cc1
logP [14]: 0.98

logD [24]: 0.96
Compound: CC(C)c1ccccc(=O)c1O

Compound: N#CCCCCCCC#N
logP [32]: 0.59

logD [35]: 2.67
Compound: CC(C)CNCC(C)C

logP [33]: 5.2
Compound: Clc1cc(Cl)c(Cl)c(Cl)c1Cl

logD [36]: 1.98
Compound: CCOc1cccc(O)c1

logP [37]: 3.62
Compound: CCC(c1ccccc1)c1c(O)c2ccccc2oc1=O (stereo not given)

logP [38]: 1.68
Compound: CCC(CC)C(=O)O

logP [28]: 1.02
Compound: COCC(O)Cn1c([N+](=O)[O-])nc(Br)c1Br (stereo not given)

logP: 1.39
Compound: O=C(O)c1cccc(O)c1

Compound: Nc1cc(Cl)c(Cl)cc1Cl
logP [4]: 3.31

Compound: Cc1c(Cl)cccc1[N+](=O)[O-]
logP [5]: 3.09

logP [8]: 0.93
Compound: [O-][n+]1ccc(-c2ccccc2)cc1

Compound: Cn1c(=O)[nH]c(=O)c2nc[nH]c21
logD [39]: -0.72

logD [40]: 1.82
Compound: c1ccc2[nH]ncc2c1

logP [26]: 4.61
Compound: CCOc1cc(Cl)c(Cl)c(Cl)c1

Compound: CCCCN(N=O)C(N)=O
logD [34]: 1.04

logD [9]: -1.58
Compound: CS(=O)(=O)OC[C@H](O)[C@@H](O)COS(C)(=O)=O

logD [35]: 1.08
Compound: C=CCNCC=C

logD [40]: 1.15
Compound: O=C1Cc2ccccc2N1

logP [15]: -1.22
Compound: Cc1cccc(C(=O)O)n1

logP [23]: -0.82
Compound: Cn1cnc2c1c(=O)[nH]c(=O)n2C

logD [39]: 1.02
Compound: CCCn1c(=O)n(C)c(=O)c2nc[nH]c21

logP [2]: 4.42
Compound: COc1c(O)c(Cl)c(Cl)c(Cl)c1Cl

Compound: Cc1ccccc1[N+](=O)[O-]
logP [19]: 2.17

logP [20]: 2.78
Compound: CC(C)COCC(C)C

logD [6]: 2.87
Compound: O=C(O)c1cc(Br)ccc1O

logP [18]: 2.08
Compound: CCCCCC(C)=O

logD ([37]; pH 1.0): -2.57
Compound: O=C(O)[C@H]1O[C@H](O)[C@H](O)[C@@H](O)[C@@H]1O

Compound: CC(C)CC(=O)NC(N)=O
logP [13]: 0.45

Compound: Oc1c(F)c(F)c(F)c(F)c1F
logP [41]: 2.96

logP [21]: 1.5
Compound: c1ccc(-c2nnn[nH]2)cc1

logP [41]: 3.37
Compound: Oc1cccc(Br)c1Br

logP [17]: 3.65
Compound: CCCNc1c([N+](=O)[O-])cc(C(F)(F)F)cc1[N+](=O)[O-]

Compound: O=NN(CCCl)C(=O)NCCO
logP [42]: 0.3

logD [36]: 0.06
Compound: NS(=O)(=O)c1ccc(O)cc1

logP [38]: 3.2
Compound: CCCCCC(CCC)C(=O)O (stereo not given)

Compound: Oc1c(Cl)c(Cl)cc(Cl)c1Cl
logP [31]: 4.47

logD ([27]; pH 7.4): -0.21
Compound: CCC(=O)n1c(=O)[nH]cc(F)c1=O

Compound: O=NN(CCCl)C(=O)N1CCCC1
logP [42]: 0.9
